The text below walks through data of PubChem BioAssay (NCI).

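Exposure lasted 48 hours, with cells grown in 96-well plates and compounds tested at five concentrations. Abbreviation: GI50, concentration required for 50% inhibition of growth. TGI: total growth inhibition.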

Among the test systems are A549 NSCLC; HOP-62 NSCLC; OVCAR-5 ovarian; NCI/ADR-RES ovarian; SK-OV-3 ovarian; SK-MEL-2 melanoma; MCF7 breast; SR leukemia; SF-268 CNS; LOX IMVI melanoma.
What all share (test): growth of human tumour cells (NCI), 48 h

Regarding `Cc1ccc(S(=O)(=O)NC(CCC(=O)Nc2ccc(Cl)cc2)C(=O)Nc2ccc(Cl)cc2)cc1` (stereo not given), the GI50 was 0.178 µM with A549 NSCLC; 0.62 µM with HOP-62 NSCLC; 4.31 µM in the assay on OVCAR-5 ovarian; 1.03 µM in the assay on NCI/ADR-RES ovarian; 0.869 µM in the assay on SK-OV-3 ovarian; 0.57 µM with SK-MEL-2 melanoma. The GI50 in the assay with MCF7 breast was 0.287 µM; in the assay with SR leukemia, 0.197 µM; in the assay on SF-268 CNS it was 0.862 µM; in the assay with LOX IMVI melanoma, 0.258 µM. For the same compound, the TGI worked out at 6.72 µM with A549 NSCLC; 2.07 µM with HOP-62 NSCLC; 11.4 µM with OVCAR-5 ovarian; 7.63 µM with NCI/ADR-RES ovarian; 4.36 µM in the assay with SK-OV-3 ovarian; 6.64 µM with SK-MEL-2 melanoma. The TGI worked out at 6.51 µM with MCF7 breast, 6.76 µM in the assay with SR leukemia, 8.04 µM with SF-268 CNS and 5.63 µM with LOX IMVI melanoma.

Turning to `Cc1ccc(S(=O)(=O)N/N=C/C(Br)=C(/Br)C(=O)O)cc1`, the TGI with A549 NSCLC is 50.2 µM; with HOP-62 NSCLC, 43.6 µM; in the assay with OVCAR-5 ovarian, greater than 55.5 µM; in the assay with NCI/ADR-RES ovarian, 17.9 µM; with SK-OV-3 ovarian, 34.8 µM; in the assay on SK-MEL-2 melanoma, 35.1 µM. The TGI with MCF7 breast was determined as 51 µM; in the assay on SR leukemia, 1.7 µM; in the assay with SF-268 CNS, 30.2 µM; in the assay on LOX IMVI melanoma it was 11 µM.

Regarding `CC1(C)N=C(N)N=C(N)N1c1cccc(/C=C/C=C/c2cccc([N+](=O)[O-])c2)c1`, the GI50 with A549 NSCLC is 3.9 µM; in the assay on HOP-62 NSCLC, 18.1 µM; in the assay on OVCAR-5 ovarian it was 10.5 µM; in the assay on NCI/ADR-RES ovarian, greater than 100 µM; in the assay on SK-OV-3 ovarian it was 32.1 µM; in the assay with SK-MEL-2 melanoma it was 13.4 µM. The GI50 is 5.57 µM in the assay on MCF7 breast, 4.71 µM in the assay on SR leukemia, 3.64 µM in the assay with SF-268 CNS and 5.02 µM in the assay on LOX IMVI melanoma. Besides, the TGI was 24 µM with A549 NSCLC; 35.9 µM in the assay with HOP-62 NSCLC; 42.5 µM in the assay on OVCAR-5 ovarian; greater than 100 µM in the assay with NCI/ADR-RES ovarian; greater than 100 µM in the assay on SK-OV-3 ovarian; 28.5 µM in the assay with SK-MEL-2 melanoma. Besides, the TGI in the assay on MCF7 breast was 22.4 µM; with SR leukemia, 29.2 µM; in the assay on SF-268 CNS, 17.4 µM; in the assay on LOX IMVI melanoma, 19.2 µM.

For `C[C@H]1[C@H](OC(=O)CCC(=O)O)O[C@@H]2O[C@]3(C)CC[C@H]4[C@H](C)CC[C@@H]1[C@@]24OO3`, the GI50 in the assay with A549 NSCLC is 0.959 µM; with HOP-62 NSCLC it was 3.68 µM; in the assay on OVCAR-5 ovarian it was 0.669 µM; with NCI/ADR-RES ovarian, 0.482 µM; with SK-OV-3 ovarian, 16.7 µM; in the assay with SK-MEL-2 melanoma, 2.86 µM. Further, the GI50 with MCF7 breast is 0.698 µM; in the assay on SR leukemia it was 0.238 µM; in the assay on SF-268 CNS, 1.04 µM; in the assay with LOX IMVI melanoma, 0.421 µM. In addition, the TGI with A549 NSCLC is 18.3 µM; with HOP-62 NSCLC, 27.3 µM; in the assay with OVCAR-5 ovarian, 20.5 µM; in the assay with NCI/ADR-RES ovarian, 6.15 µM; in the assay with SK-OV-3 ovarian, greater than 89 µM; in the assay with SK-MEL-2 melanoma it was 59.8 µM. Further, the TGI in the assay with MCF7 breast amounted to 20.8 µM; with SR leukemia, 4.27 µM; with SF-268 CNS it was 43.2 µM; in the assay on LOX IMVI melanoma it was 4.79 µM.

`COc1cc2c(cc1OC)C(=O)C(Br)CC2` (stereo not given): the GI50 with A549 NSCLC is 11.4 µM; in the assay with HOP-62 NSCLC, 6.09 µM; in the assay on OVCAR-5 ovarian, 5.47 µM; with NCI/ADR-RES ovarian, 4.5 µM; with SK-OV-3 ovarian, 4.55 µM; with SK-MEL-2 melanoma, 3.6 µM. For the same compound, the GI50 in the assay on MCF7 breast is 3.13 µM; with SR leukemia, 3.49 µM; in the assay with SF-268 CNS it was 4.36 µM; with LOX IMVI melanoma, 1.74 µM. In addition, the TGI was determined as 27.7 µM in the assay on A549 NSCLC; 18.5 µM in the assay on HOP-62 NSCLC; 18.2 µM with OVCAR-5 ovarian; 37.3 µM with NCI/ADR-RES ovarian; 13.7 µM with SK-OV-3 ovarian; 9.98 µM in the assay with SK-MEL-2 melanoma. Besides, the TGI in the assay on MCF7 breast was 13.7 µM; in the assay on SR leukemia it was greater than 100 µM; with SF-268 CNS, 15.7 µM; in the assay on LOX IMVI melanoma it was 3.34 µM.

On to `Cc1cc(NC(=O)C2c3ccccc3C(=O)N(CC(C)C)C2c2cccs2)no1` (stereo not given), for which the GI50 was greater than 100 µM in the assay with A549 NSCLC; greater than 100 µM with HOP-62 NSCLC; greater than 100 µM with OVCAR-5 ovarian; 90.2 µM with NCI/ADR-RES ovarian; greater than 100 µM in the assay on SK-OV-3 ovarian; greater than 100 µM in the assay with SK-MEL-2 melanoma. The GI50 is 60 µM in the assay with MCF7 breast, 35.5 µM with SR leukemia, greater than 100 µM in the assay on SF-268 CNS and greater than 100 µM in the assay on LOX IMVI melanoma. The TGI with A549 NSCLC, in the assay on HOP-62 NSCLC, in the assay on OVCAR-5 ovarian, in the assay with NCI/ADR-RES ovarian, with SK-OV-3 ovarian and in the assay on SK-MEL-2 melanoma was greater than 100 µM throughout. In addition, the TGI in the assay on MCF7 breast, in the assay on SR leukemia, with SF-268 CNS and in the assay on LOX IMVI melanoma was greater than 100 µM throughout.

As for `Nc1cccc2c1C(=O)N(C1CCC(=O)NC1=O)C2=O` (stereo not given), the GI50 in the assay with A549 NSCLC, with HOP-62 NSCLC, with OVCAR-5 ovarian, in the assay on NCI/ADR-RES ovarian, in the assay on SK-OV-3 ovarian and in the assay on SK-MEL-2 melanoma was greater than 100 µM in each case. Further, the GI50 with MCF7 breast, in the assay on SR leukemia, with SF-268 CNS and in the assay on LOX IMVI melanoma was greater than 100 µM each time. Besides, the TGI in the assay on A549 NSCLC, in the assay with HOP-62 NSCLC, in the assay on OVCAR-5 ovarian, with NCI/ADR-RES ovarian, with SK-OV-3 ovarian and with SK-MEL-2 melanoma was greater than 100 µM in each case. In addition, the TGI in the assay with MCF7 breast, with SR leukemia, in the assay with SF-268 CNS and in the assay with LOX IMVI melanoma was greater than 100 µM each time.

With `Cc1cc2c(C)c3cc(C)c(N)cc3nc2cc1N`, the GI50 with A549 NSCLC was 0.636 µM; with HOP-62 NSCLC, 1.11 µM; with OVCAR-5 ovarian, 0.884 µM; in the assay with NCI/ADR-RES ovarian, 4.92 µM; in the assay with SK-OV-3 ovarian, 0.963 µM; in the assay on SK-MEL-2 melanoma it was 1.3 µM. The GI50 in the assay with MCF7 breast is 0.342 µM; in the assay on SR leukemia it was 0.507 µM; in the assay on SF-268 CNS, 0.604 µM; with LOX IMVI melanoma, 0.893 µM. In addition, the TGI in the assay on A549 NSCLC turned out to be 3.16 µM; with HOP-62 NSCLC, 7.08 µM; in the assay with OVCAR-5 ovarian, 5.34 µM; in the assay on NCI/ADR-RES ovarian it was 25.3 µM; in the assay on SK-OV-3 ovarian, 8.39 µM; in the assay on SK-MEL-2 melanoma it was 3.85 µM. Also, the TGI stood at 4.38 µM with MCF7 breast, 4.2 µM with SR leukemia, 6.53 µM with SF-268 CNS and 4.03 µM in the assay with LOX IMVI melanoma.
